Laboratory results taken from the CheMixHub ionic liquid set.

Assay: xn = mol fraction of the nth substance listed

CCCCCCCCn1cc[n+](C)c1.N#C[S-] + CN1CCCC1=O
viscosity [mPa·s], 101 kPa
Conditions | x1 = 0.0008419 | x1 = 0.001327 | x1 = 0.002048 | x1 = 0.002709 | x1 = 0.003576 | x1 = 0.004058 | x1 = 0.004657 | x1 = 0.005393
288.15 K | 2.152 | 2.16 | 2.177 | 2.191 | 2.199 | 2.204 | 2.213 | 2.229
298.15 K | 1.809 | 1.817 | 1.827 | 1.834 | 1.846 | 1.857 | 1.865 | 1.872
308.15 K | 1.572 | 1.58 | 1.591 | 1.599 | 1.61 | 1.621 | 1.631 | 1.641
318.15 K | 1.354 | 1.37 | 1.393 | 1.407 | 1.417 | 1.434 | 1.447 | 1.458

C[N+]1(CCOCC[N+]2(C)CCCC2)CCCC1.N#C[N-]C#N.N#C[N-]C#N + CC[n+]1ccn(C)c1.N#C[N-]C#N + O=S(=O)([N-]S(=O)(=O)C(F)(F)F)C(F)(F)F.[Li+]
100 kPa, x1 = 0.2938, x2 = 0.621
Conditions | electrical conductivity [S/m]
298 K | 0.622
303 K | 0.76
313 K | 1.04
323 K | 1.38
333 K | 1.76
343 K | 2.24

CCCCCCCCCCCC[N+](C)(C)Cc1ccccc1.O=S(=O)([N-]S(=O)(=O)C(F)(F)F)C(F)(F)F + CCCCO
101 kPa
Conditions | viscosity [mPa·s]
298.15 K, x1 = 1 | 1425
303.15 K, x1 = 0.3015 | 34.1
308.15 K, x1 = 0.3015 | 27.3
308.15 K, x1 = 1 | 683
313.15 K, x1 = 0.7485 | 198
318.15 K, x1 = 0.1507 | 7.45
318.15 K, x1 = 0.4494 | 37.6
328.15 K, x1 = 0.9164 | 159
333.15 K, x1 = 0.1507 | 4.83
333.15 K, x1 = 0.4494 | 20.6
333.15 K, x1 = 0.594 | 40.9
338.15 K, x1 = 0.7485 | 63
338.15 K, x1 = 1 | 118
343.15 K, x1 = 0.7485 | 52.4
348.15 K, x1 = 0.594 | 25.2

CCCC(=O)[O-].CC[NH+](CC)CCO + CCCC[n+]1ccn(C)c1.COP(=O)([O-])OC
101 kPa
Conditions | viscosity [mPa·s]
278.15 K, x1 = 0.8006 | 196.8
278.15 K, x1 = 1 | 189
283.15 K, x1 = 0.6001 | 182.3
283.15 K, x1 = 1 | 133.9
288.15 K, x1 = 0.1023 | 864
288.15 K, x1 = 0.6613 | 121.1
293.15 K, x1 = 0.3985 | 163.9
293.15 K, x1 = 0.498 | 123.1
293.15 K, x1 = 0.6001 | 99.4
293.15 K, x1 = 0.8788 | 74.2
298.15 K, x1 = 0.1989 | 264.3
303.15 K, x1 = 0.1989 | 194.8
303.15 K, x1 = 0.6001 | 58.8
308.15 K, x1 = 0.3985 | 73.2
313.15 K, x1 = 0.3026 | 78
313.15 K, x1 = 0.498 | 45.11
313.15 K, x1 = 0.6613 | 33.88
318.15 K, x1 = 0.1023 | 124.4
318.15 K, x1 = 0.6001 | 30.12
318.15 K, x1 = 0.8006 | 23.35
323.15 K, x1 = 0.1989 | 69.7
323.15 K, x1 = 0.6613 | 22.66
328.15 K, x1 = 0.6001 | 20.62
338.15 K, x1 = 0.6613 | 13.49
338.15 K, x1 = 0.8006 | 11.39
338.15 K, x1 = 1 | 9.73
343.15 K, x1 = 0.1989 | 31.59
343.15 K, x1 = 0.3985 | 18.82
343.15 K, x1 = 0.6001 | 12.63
348.15 K, x1 = 0.498 | 13.05
353.15 K, x1 = 0.3026 | 17.55
353.15 K, x1 = 0.8006 | 7.3
353.15 K, x1 = 0.8788 | 6.78
353.15 K, x1 = 1 | 6.11
358.15 K, x1 = 0.3985 | 12.24
358.15 K, x1 = 0.6613 | 7.62
358.15 K, x1 = 1 | 5.31
368.15 K, x1 = 0.3026 | 11.71
368.15 K, x1 = 1 | 4.09

c1ccsc1 + CCCC[n+]1ccn(C)c1.N#C[S-]
100 kPa, x1 = 1
Conditions | viscosity [mPa·s]
298.15 K | 0.655
308.15 K | 0.585
318.15 K | 0.525
328.15 K | 0.47

CCCCCCCCn1cc[n+](C)c1.[Cl-] + CCCCCCCCn1cc[n+](C)c1.F[B-](F)(F)F
101 kPa, x1 = 1
Conditions | electrical conductivity [S/m] | viscosity [mPa·s]
303 K | 0.00213 | –
308 K | 0.00353 | –
313 K | 0.00562 | –
318 K | 0.00861 | –
328.15 K | – | 1367

C[N+]1(CCOCCOCC[N+]2(C)CCCC2)CCCC1.N#C[N-]C#N.N#C[N-]C#N + CC[n+]1ccn(C)c1.N#C[N-]C#N + O=S(=O)([N-]S(=O)(=O)C(F)(F)F)C(F)(F)F.[Li+]
electrical conductivity [S/m], 100 kPa
Conditions | 298 K | 303 K | 313 K | 323 K | 333 K | 343 K
x1 = 0.2606, x2 = 0.6156 | 0.561 | 0.658 | 0.963 | 1.27 | 1.61 | 1.94
x1 = 0.2713, x2 = 0.6408 | 0.911 | 1.01 | 1.37 | 1.71 | 2.12 | 2.54

Cc1ncc(C[n+]2csc(CCO)c2C)c(N)n1.Cl.[Cl-] + O + CCCC[N+](CCCC)(CCCC)CCCC.O=S(=O)([O-])O
viscosity [mPa·s], 101 kPa
Conditions | x1 = 0.0003639, x3 = 0 | x1 = 0.0006573, x3 = 0 | x1 = 0.0009524, x3 = 0 | x1 = 0.001251, x3 = 0 | x1 = 0.001553, x3 = 0 | x1 = 0.001856, x3 = 0
298.15 K | 0.9024 | 0.914 | 0.9244 | 0.9372 | 0.9488 | 0.959
308.15 K | 0.7301 | 0.7393 | 0.7485 | 0.7576 | 0.768 | 0.7772
318.15 K | 0.6037 | 0.6116 | 0.6196 | 0.6275 | 0.6343 | 0.6413

CCCCCCCCCCCCCCCC[N+](C)(C)C.[Br-] + OC[C@@H](O)[C@@H](O)[C@H](O)[C@@H](O)CO + O
viscosity [mPa·s], 100 kPa
Conditions | 298.15 K | 308.15 K | 318.15 K
x2 = 0, x1 = 7.21e-06 | 0.896 | 0.742 | 0.617
x2 = 0, x1 = 1.442e-05 | 0.898 | 0.744 | 0.617
x2 = 0, x1 = 2.162e-05 | 0.9 | 0.745 | 0.617

CCCCCCCCCCCC[N+](C)(C)C.[Br-] + CS(C)=O + O
298 K, 101 kPa
Conditions | electrical conductivity [S/m]
x2 = 0.05957, x1 = 0.0001378 | 0.0321
x2 = 0.09776, x1 = 0.001524 | 0.181

CC[n+]1ccn(C)c1.N#C[S-] + CC[n+]1ccn(C)c1.CS(=O)(=O)[O-] + O
100 kPa, x1 = 1, x2 = 0
Conditions | viscosity [mPa·s]
298.15 K | 23.91
323.15 K | 11.7

OCCN(CCO)CCO + CC[n+]1ccn(C)c1.O=S(=O)([O-])C(F)(F)F
100 kPa
Conditions | electrical conductivity [S/m] | viscosity [mPa·s]
293.15 K, x1 = 0.084 | – | 52.9
298.15 K, x1 = 0.426 | 0.357 | 65.6
298.15 K, x1 = 0.539 | 0.232 | 87.6
298.15 K, x1 = 0.875 | 0.019 | 320
298.15 K, x1 = 0.969 | 0.00321 | –
298.15 K, x2 = 0.003 | 0.000411 | –
298.15 K, x2 = 0.006 | 0.00071 | –
298.15 K, x2 = 0.017 | 0.00188 | –
303.15 K, x1 = 0.084 | – | 36.1
303.15 K, x1 = 0.167 | – | 37
303.15 K, x1 = 0.641 | – | 87.1
303.15 K, x2 = 0.006 | – | 400
313.15 K, x1 = 0.167 | 1.19 | 26
313.15 K, x1 = 0.723 | 0.185 | 65.8
313.15 K, x2 = 0.003 | 0.00117 | –
313.15 K, x2 = 0.006 | 0.00204 | 198.3

CCCCCCCCn1cc[n+](C)c1.[Cl-] + CCO + O
298.15 K, 101 kPa
Conditions | viscosity [mPa·s]
x2 = 0.0467, x3 = 0.9348 | 2.514
x2 = 0.0558, x3 = 0.9143 | 3.908
x2 = 0.0679, x3 = 0.8854 | 7.008
x2 = 0.0766, x3 = 0.8576 | 10.5
x2 = 0.0826, x3 = 0.91 | 2.007
x2 = 0.0929, x3 = 0.8165 | 13.64
x2 = 0.0962, x3 = 0.8862 | 2.748
x2 = 0.0984, x3 = 0.1869 | 2330
x2 = 0.1218, x3 = 0.7443 | 18.9
x2 = 0.1329, x3 = 0.8601 | 2.881
x2 = 0.1594, x3 = 0.6721 | 21.9
x2 = 0.1807, x3 = 0.7375 | 7.695
x2 = 0.1867, x3 = 0.7875 | 3.207
x2 = 0.1968, x3 = 0.1665 | 855
x2 = 0.2008, x3 = 0.4721 | 68.1
x2 = 0.2008, x3 = 0.7927 | 2.822
x2 = 0.2235, x3 = 0.6582 | 10.37
x2 = 0.2254, x3 = 0.7596 | 2.603
x2 = 0.2604, x3 = 0.7162 | 3.164
x2 = 0.2624, x3 = 0.3089 | 119.1
x2 = 0.2733, x3 = 0.7208 | 2.591
x2 = 0.2777, x3 = 0.4267 | 41.41
x2 = 0.2833, x3 = 0.1486 | 402
x2 = 0.2958, x3 = 0.669 | 3.56
x2 = 0.3057, x3 = 0.6808 | 2.662
x2 = 0.3069, x3 = 0.6239 | 5.009
x2 = 0.3218, x3 = 0.5748 | 7.072
x2 = 0.3263, x3 = 0.5386 | 9.47
x2 = 0.3335, x3 = 0.6189 | 3.791
x2 = 0.3386, x3 = 0.6405 | 2.729
x2 = 0.3599, x3 = 0.268 | 58.73
x2 = 0.3651, x3 = 0.6297 | 2.282
x2 = 0.366, x3 = 0.5069 | 8.153
x2 = 0.3714, x3 = 0.5658 | 4.285
x2 = 0.3806, x3 = 0.3659 | 24.18
x2 = 0.3954, x3 = 0.5743 | 2.873
x2 = 0.4166, x3 = 0.5418 | 3.353
x2 = 0.4363, x3 = 0.4778 | 4.956
x2 = 0.4432, x3 = 0.2332 | 33.75
x2 = 0.4437, x3 = 0.5387 | 2.553
x2 = 0.4443, x3 = 0.5002 | 3.63
x2 = 0.4617, x3 = 0.4303 | 5.846
x2 = 0.5079, x3 = 0.2907 | 11.59
x2 = 0.532, x3 = 0.3966 | 3.823
x2 = 0.5377, x3 = 0.4533 | 1.472
x2 = 0.544, x3 = 0.4234 | 2.522
x2 = 0.5558, x3 = 0.186 | 16.16
x2 = 0.5841, x3 = 0.3951 | 2.156
x2 = 0.5878, x3 = 0.3295 | 3.918
x2 = 0.6004, x3 = 0.2361 | 7.378
x2 = 0.6077, x3 = 0.3891 | 1.864
x2 = 0.6374, x3 = 0.3073 | 2.912
x2 = 0.6743, x3 = 0.2932 | 2.278
x2 = 0.6985, x3 = 0.0625 | 11.08
x2 = 0.6991, x3 = 0.1777 | 4.71
x2 = 0.7005, x3 = 0.2845 | 1.923
x2 = 0.7599, x3 = 0.1919 | 2.375
x2 = 0.7937, x3 = 0.0428 | 5.553
x2 = 0.7997, x3 = 0.1184 | 2.964
x2 = 0.847, x3 = 0.1454 | 1.508
